Assay results as given in ChEMBL document CHEMBL3137667, “[Drug-induced liver injury; fourteenth updated edition of the bibliographic database of liver injuries and related drugs]” (Gastroenterol Clin Biol, 2004).

How the values were obtained:
[1] = human
[2] = human, serum
[3] = human; remark: listed apart in the source
[4] = Times to onset, minimal and maximal, observed in the indexed observations. [column 'DELAI' in source]; settings: human
[5] = human; remark: listed apart in the source
[6] = human; remark: listed apart in the source
[7] = human, serum, 4383 h
[8] = human, serum; remark: listed apart in the source
[9] = human; remark: listed apart in the source
[10] = human; remark: listed apart in the source
[11] = human; remark: listed apart in the source
[12] = human; remark: listed apart in the source
[13] = Highest frequency of moderate liver toxicity observed during clinical trials, expressed as a percentage. [column '% BIOL' in source]; settings: human
[14] = Highest frequency of acute liver toxicity observed during clinical trials, expressed as a percentage. [column '% AIGUE' in source]; settings: human
[15] = human; remark: listed apart in the source
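Wherever Hepatotoxicity (association with vascular disease) is given: count of indexed literature references reporting vascular liver injury in humans, e.g. peliosis hepatitis, hepatic veno-occlusive disease or Budd-Chiari syndrome.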
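Wherever Hepatotoxicity (benign tumour) is given: value is a count of indexed literature references citing a benign tumour confirmed by histopathology.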
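Wherever Hepatotoxicity (choleostasis) is given: human cholestatic liver injury, shown by histopathology or by peak ALT or AST elevation over alkaline phosphatase ratio below 2, value counts indexed literature reports.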
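Wherever Hepatotoxicity (chronic liver disease) is given: chronic liver injury confirmed by histopathology or persistently raised serum aminotransferase activity beyond 6 months, value given as the count of indexed literature references.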
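Wherever Hepatotoxicity (cirrhosis) is given: value is a count of indexed literature references reporting cirrhosis confirmed by histopathology.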
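Wherever Hepatotoxicity (cytolytic) is given: human cytolytic liver injury, shown by histopathology or by a ratio above 5 of peak ALT or AST elevation to alkaline phosphatase elevation, value counts indexed references.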
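Wherever Hepatotoxicity (granulomatous hepatitis) is given: value is a count of indexed literature references reporting granulomatous liver disease confirmed by histopathology.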
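Wherever Hepatotoxicity (malignant tumour) is given: malignant tumour confirmed by histopathology, value gives the count of indexed literature references reporting it.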
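Wherever Hepatotoxicity (severe hepatitis) is given: human clinical data: severe hepatitis, meaning potentially life-threatening liver failure or clinically observed cases, the value counts how many indexed literature references report it.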
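Wherever Hepatotoxicity (steatosis) is given: steatosis confirmed by histopathology, value is the count of indexed references.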

| SMILES | Hepatotoxicity (association with vascular disease) [1] | Hepatotoxicity (acute) [2] | Hepatotoxicity (severe hepatitis) [3] | Hepatotoxicity (time to onset) [4] | Hepatotoxicity (malignant tumour) [5] | Hepatotoxicity (choleostasis) [6] | Hepatotoxicity (chronic liver disease) [7] | Hepatotoxicity (moderate) [8] | Hepatotoxicity (granulomatous hepatitis) [9] | Hepatotoxicity (cirrhosis) [10] | Hepatotoxicity (steatosis) [11] | Hepatotoxicity (benign tumour) [12] | Hepatotoxicity (moderate) [13] [%] | Hepatotoxicity (acute) [14] [%] | Hepatotoxicity (cytolytic) [15] | also measured |
| --- | --- | --- | --- | --- | --- | --- | --- | --- | --- | --- | --- | --- | --- | --- | --- | --- |
| C=CCC1(CC(C)C)C(=O)NC(=O)NC1=O [BUTALBITAL] | 0 | 1 | 0 | 2.5 months | 0 | 0 | 0 | 0 | 0 | 0 | 0 | 0 | 0 | 0 | 1 |  |
| CN(C)C(=O)OC1N=C(c2ccccc2)c2cc(Cl)ccc2N(C)C1=O (stereo not given) [CAMAZEPAM] | 0 | 1 | 0 | 3 months | 0 | 0 | 0 | 0 | 0 | 0 | 0 | 0 | 0 | 0 | 1 |  |
| CCCC(C)(COC(N)=O)COC(=O)NC(C)C (stereo not given) [CARISOPRODOL] | 0 | 1 | 0 | 2 weeks | 0 | 0 | 0 | 0 | 0 | 0 | 0 | 0 | 0 | 0 | 1 |  |
| COc1ccccc1OCCNCC(O)COc1cccc2[nH]c3ccccc3c12 (stereo not given) [CARVEDILOL] | 0 | 1 |  | 6 months | 0 | 1 | 0 | 0 | 0 | 0 | 0 | 0 |  |  | 1 | Hepatotoxicity (severe hepatitis) ([3]; Liver): 0; Hepatotoxicity (moderate) ([13]; Liver): 0%; Hepatotoxicity (acute) ([14]; Liver): 0% |
| N[C@@H](C(=O)N[C@@H]1C(=O)N2C(C(=O)O)=C(Cl)CS[C@H]12)c1ccccc1 [CEFACLOR ANHYDROUS] | 0 | 2 | 0 | 8 days | 0 | 2 | 0 | 20 | 0 | 0 | 0 | 0 | 10.7 | 2.2 | 1 |  |
| Cn1nnnc1SCC1=C(C(=O)O)N2C(=O)[C@@H](NC(=O)[C@H](O)c3ccccc3)[C@H]2SC1 [CEFAMANDOLE] | 0 | 2 | 0 | 4 days | 0 | 1 | 0 | 13 | 0 | 0 | 0 | 0 | 75 | 2.4 | 0 |  |
| C=CC1=C(C(=O)O)N2C(=O)[C@@H](NC(=O)/C(=N\OCC(=O)O)c3csc(N)n3)[C@H]2SC1 [CEFIXIME] | 0 | 1 | 0 | 2 days | 0 | 1 | 0 | 37 | 0 | 0 | 0 | 0 | 33.3 | 0 | 0 |  |
| CO[C@@]1(NC(=O)CSC[C@@H](N)C(=O)O)C(=O)N2C(C(=O)O)=C(CSc3nnnn3C)CS[C@@H]21 [CEFMINOX] | 0 | 2 |  | 9 days | 0 |  | 0 | 12 |  | 0 | 0 | 0 |  |  |  | Hepatotoxicity (severe hepatitis) ([3]; Liver): 0; Hepatotoxicity (choleostasis) ([6]; Liver): 0; Hepatotoxicity (granulomatous hepatitis) ([9]; Liver): 0; Hepatotoxicity (moderate) ([13]; Liver): 16.7%; Hepatotoxicity (acute) ([14]; Liver): 0.1%; Hepatotoxicity (cytolytic) ([15]; Liver): 0 |
| NCc1ccccc1CC(=O)N[C@@H]1C(=O)N2C(C(=O)O)=C(CSc3nnnn3CC(=O)O)CS[C@H]12 [CEFORANIDE] | 0 | 2 | 0 | 5 days - 3 weeks | 0 | 1 | 0 | 6 | 0 | 0 | 0 | 0 | 42.9 | 3.4 | 2 |  |
| CO/N=C(\C(=O)N[C@@H]1C(=O)N2C(C(=O)O)=C(COC(C)=O)CS[C@H]12)c1csc(N)n1 [CEFOTAXIME] | 0 | 4 | 0 | 3 days - 2 weeks | 0 | 2 | 0 | 33 | 0 | 0 | 0 | 0 | 33.3 | 3.3 | 1 |  |
| CN(C)CCn1nnnc1SCC1=C(C(=O)O)N2C(=O)[C@@H](NC(=O)Cc3csc(N)n3)[C@H]2SC1 [CEFOTIAM] | 0 | 1 | 0 | 4 days | 0 | 0 | 0 | 8 | 0 | 0 | 0 | 0 | 33 | 0.8 | 0 |  |
